According to article PMC11385044 (Chemical Science, 2024):
*1 amine or outer side, *2 acyl side, *3 side chain or, on linkers, in order; H or OH if unused. Where a SMILES comes first, the peptide text is derived from it. Bridges are numbered along the chain shown (N, C = ends). Roman numbers before positions name the chains, in order. The star is where a group is joined. FITC = O=C1OC2(c3ccc(O)cc3Oc3cc(O)ccc32)c2ccc(NC(=S)*)cc21; X1 = O=C(CCc1cn(CC(=O)[*:2])nn1)[*:1]

Molecular target: ubiquitin (Ub) (Homo sapiens, UniProt P0CG47)
Experiment: Fluorescence polarization
Assay type: binding
Settings: comparison with native UIM-1 peptide 12

## CC[C@H](C)[C@H](NC(=O)[C@H](C)NC(=O)[C@@H](NC(=O)[C@H](CCC(=O)O)NC(=O)[C@@H](NC(=O)[C@H](CCC(=O)O)NC(=O)[C@H](CC(C)C)NC(=O)[C@H](CCC(=O)O)NC(=O)[C@H](CCC(=O)O)NC(=O)[C@@H](NC(=O)[C@H](CCC(=O)O)NC(=O)[C@H](CCC(N)=O)NC(=O)[C@H](CCC(=O)O)NC(=O)CCc1cn(CC(=O)N[C@@H](CCCCN)C(=O)N[C@@H](CCC(N)=O)C(=O)N[C@@H](CCCCN)C(=O)N[C@H](C(=O)N[C@@H](C)C(=O)N[C@@H](C)C(=O)N[C@@H](CC(C)C)C(=O)N[C@@H](CCCCN)C(=O)N[C@@H](CCCCNC(=S)Nc2ccc3c(c2)C(=O)OC32c3ccc(O)cc3Oc3cc(O)ccc32)C(=O)N[C@@H](CCCCN)C(=O)N[C@H](C(=O)N[C@@H](C)C(=O)N[C@@H](C)C(=O)N[C@@H](CC(C)C)C(=O)N[C@@H](CCCCN)C(=O)N[C@@H](CCC(N)=O)C(=O)N[C@@H](CCCCN)C(=O)N[C@H](C(=O)N[C@@H](CCC(N)=O)C(=O)NCC(N)=O)[C@@H](C)CC)[C@@H](C)CC)[C@@H](C)CC)nn1)[C@@H](C)CC)[C@@H](C)CC)[C@@H](C)CC)C(=O)N[C@@H](CC(C)C)C(=O)N[C@@H](CC(C)C)C(=O)N[C@@H](CO)C(=O)N[C@@H](CCC(=O)O)C(=O)N[C@H](C(=O)N[C@@H](CCC(=O)O)C(=O)NCC(N)=O)[C@@H](C)CC [Peptide 10] (I: EQEIEELEIEIAILLSEIEG-NH2 / II: KQKIAALKK(FITC)KIAALKQKIQG-NH2; linker I:N-II:N via X1)
  Ub binding relative to native UIM-1 peptide: binds more strongly than the native UIM-1 peptide
